Reference: patent US5516936A, “Inhibitors of kynureninase” (University of Georgia Research Foundation, Inc., priority 1993, dated 1996)
pKi: −log10 of the molar value. Where two headings read alike, the source gives them in different places.

Key:
Kynureninase = biological target: T1, Kynureninase (Pseudomonas fluorescens, UniProt P83788); assay: Competitive inhibition of kynureninase by S-aryl cysteines and S-aryl cysteine sulfones; assay type: biochemical; settings: for pKi: Table 1; for inhibition (in words): bacterial kynureninase; for fold decrease in Ki value: relative to unsubstituted S-phenyl-L-cysteine
T1 construct: Bacterial kynureninase was prepared from cells of Pseudomonas fluorescens; endogenous in cells; partially purified by DEAE-cellulose and ammonium sulfate
T1 sequence (P83788 1-416): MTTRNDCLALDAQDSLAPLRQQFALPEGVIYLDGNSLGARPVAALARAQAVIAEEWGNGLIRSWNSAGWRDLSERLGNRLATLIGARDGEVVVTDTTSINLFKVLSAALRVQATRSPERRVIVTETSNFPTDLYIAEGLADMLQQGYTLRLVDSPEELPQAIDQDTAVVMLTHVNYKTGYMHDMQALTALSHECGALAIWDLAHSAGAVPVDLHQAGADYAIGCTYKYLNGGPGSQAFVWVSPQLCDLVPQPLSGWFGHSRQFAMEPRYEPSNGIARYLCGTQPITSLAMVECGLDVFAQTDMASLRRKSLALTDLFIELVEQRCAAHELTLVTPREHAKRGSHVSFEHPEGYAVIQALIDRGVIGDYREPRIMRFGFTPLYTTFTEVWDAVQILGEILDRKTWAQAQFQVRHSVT
Protocol: Bacterial kynureninase was prepared from cells of Pseudomonas fluorescens (ATCC 11250, for example) essentially as described by .Hayaishi and Stanier (1952) J. Biol. Chem. 195:735-740. Cells were grown on a minimal medium containing 0.1% L-tryptophan as the sole carbon and nitrogen source.
From 100 1 of medium, grown for 18 h at 30° C. 230 g of wet cell paste was obtained. The cells were suspended in 1 of 0.01M potassiumphosphate, pH 7.0, and disrupted by 2 passages through a Manton-Gaulin homogenizer. After centrifugation of the cell extract for 1 h at 10000 g, the enzyme was partially purified by ion-exchange chromatography on DEAE-cellulose and ammonium sulfate precipitation.
Kynureninase activity was measured at 25° C. by following the decrease in absorbance at 360 nm (ε=-4500M^-1 cm^-1). A typical assay mixture contained 0.4 mM L-kynurenine in 0.04M potassium phosphate, pH 7.8, containing 40 μM pyridoxal-5'-phosphate, at 25° C. The reactions of S-aryl cysteines and S-aryl cysteine sulfones with kynureninase were performed using a spectrophotometric coupled assay with lactate dehydrogenase and NADH, by monitoring a decrease in absorbance due to pyruvate formation. A typical assay mixture contained 30 μl lactate dehydrogenase solution (2 mg/ml), 0.1 mM NADH, 40 μM pyridoxal-5'-phosphate, 0.04M tris.HCl buffer, pH 7.8, with varying concentrations of the compounds. The competitive inhibition of these compounds was measured by variation of L-kynurenine concentrations at several fixed values of the inhibitor. Km and Vmax values were calculated by fitting of initial rate data to the Michaelis-Menten equation with ENZFITTER (Elsevier) on a Z-286 personal computer. KI values were determined from the equation:
v=Vmax[S]/ (Km (1+[I]/Ki)+[S]

rat liver kynureninase = biological target: T2, rat liver kynureninase (Rattus norvegicus, UniProt P70712); settings: Wiss and Fuchs (1950); cited from earlier work
T2 construct: host or cells: rat liver
T2 sequence (P70712 1-464): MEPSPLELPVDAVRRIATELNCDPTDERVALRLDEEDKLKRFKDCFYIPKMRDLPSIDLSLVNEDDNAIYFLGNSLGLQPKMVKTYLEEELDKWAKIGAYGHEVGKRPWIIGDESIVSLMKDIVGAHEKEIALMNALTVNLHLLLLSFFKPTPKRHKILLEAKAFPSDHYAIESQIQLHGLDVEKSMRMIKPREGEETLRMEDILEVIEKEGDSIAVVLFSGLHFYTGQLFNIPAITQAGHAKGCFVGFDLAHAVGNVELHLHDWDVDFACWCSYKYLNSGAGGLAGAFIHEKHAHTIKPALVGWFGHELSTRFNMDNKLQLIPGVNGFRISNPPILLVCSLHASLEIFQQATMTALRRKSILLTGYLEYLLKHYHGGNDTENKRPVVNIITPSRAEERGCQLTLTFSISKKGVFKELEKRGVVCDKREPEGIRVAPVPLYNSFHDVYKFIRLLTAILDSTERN

bacterial kynureninase [1] = settings: Hayaishi (1955); cited from earlier work
[2] = test system: kynureninase of P. fluorescens; settings: cited from earlier work
bacterial kynureninase [3] = settings: Kishore (1984); cited from earlier work
rat renal C-S lyase = settings: kidney slice methodology; cited from earlier work
bacterial kynureninase [4] = settings: cited from earlier work; for inhibition of bacterial kynureninase (in words): Tanizawa and Soda (1979)
[5] = competitive inhibition vs L-kynurenine, pH 7.8, 25° C., footnote 1: 0.07 is an upper limit, read-out: Ki

N[C@@H](CS(=O)(=O)c1ccccc1[N+](=O)[O-])C(=O)O
pKi (Kynureninase; [5]): 4.64

N[C@@H](CS(=O)(=O)c1ccc([N+](=O)[O-])cc1)C(=O)O
pKi (Kynureninase; [5]): 4.92

Nc1ccc(SC[C@H](N)C(=O)O)cc1
pKi (Kynureninase; [5]): 3.85

Nc1ccc(S(=O)(=O)C[C@H](N)C(=O)O)cc1
pKi (Kynureninase; [5]): 5.07

CC(=O)CC(N)C(=O)O (centres unmarked) [2-aminolevulinic acid]
reaction with rat liver kynureninase to produce alanine (in words) (rat liver kynureninase): reacted with rat liver kynureninase

Nc1c(O)cccc1C(=O)C[C@H](N)C(=O)O [3-hydroxy-L-kynurenine, α,2-diamino-3-hydroxy-γ-oxobenzenebutanoic acid]
substrate of bacterial kynureninase (in words) (bacterial kynureninase [1]): substrates | reaction with rat liver kynureninase to produce alanine (in words) (rat liver kynureninase): reacted with rat liver kynureninase | Km ([2]; Tanizawa and Soda (1979)): 200 µM | substrate of kynureninase (in words) ([2]; Tanizawa and Soda (1979)): substrates

COc1cccc(C(=O)C[C@H](N)C(=O)O)c1N [3-methoxy-L-kynurenine]
substrate of bacterial kynureninase (in words) (bacterial kynureninase [1]): do not react with bacterial kynureninase

Nc1cc(F)ccc1C(=O)C[C@H](N)C(=O)O [4-fluoro-L-kynurenine]
substrate of kynureninase (in words) ([2]; Tanizawa and Soda (1979)): substrates

Nc1ccc(F)cc1C(=O)C[C@H](N)C(=O)O [5-fluoro-L-kynurenine]
substrate of kynureninase (in words) ([2]; Tanizawa and Soda (1979)): substrates

Nc1ccc(O)cc1C(=O)C[C@H](N)C(=O)O [5-hydroxy-L-kynurenine]
substrate of bacterial kynureninase (in words) (bacterial kynureninase [1]): substrates | substrate of kynureninase (in words) ([2]; Tanizawa and Soda (1979)): substrates

Cc1ccc(N)c(C(=O)C[C@H](N)C(=O)O)c1 [5-methyl-L-kynurenine]
substrate of kynureninase (in words) ([2]; Tanizawa and Soda (1979)): substrates

Nc1ccccc1C(=O)C[C@@H](N)C(=O)O [D-kynurenine]
substrate of kynureninase (in words) ([2]; Tanizawa and Soda (1979)): not substrates

NC(=O)C[C@H](N)C(=O)O [L-asparagine]
substrate of kynureninase (in words) ([2]; Tanizawa and Soda (1979)): not substrates

Nc1ccccc1C(=O)C[C@H](N)C(=O)O [L-kynurenine, α,2-diamino-γ-oxobenzenebutanoic acid]
reaction with rat liver kynureninase to produce alanine (in words) (rat liver kynureninase): reacted with rat liver kynureninase | Km ([2]; Tanizawa and Soda (1979)): 35 µM

N[C@@H](COS(=O)(=O)O)C(=O)O [L-serine O-sulfate]
inactivation of kynureninase (in words) (bacterial kynureninase [3]): inactivated kynureninase | reaction with kynureninase (in words) (bacterial kynureninase [3]): react with kynureninase to give pyruvate and ammonia

N[C@@H](CC(=O)c1ccccc1NC=O)C(=O)O [N'-formyl-L-kynurenine]
substrate of bacterial kynureninase (in words) (bacterial kynureninase [1]): not a substrate | substrate of kynureninase (in words) ([2]; Tanizawa and Soda (1979)): substrates | Km ([2]; bacterial kynureninase): 2200 µM

CC(=O)N[C@@H](CSc1c([N+](=O)[O-])cccc1[N+](=O)[O-])C(=O)O [N-acetyl-S-(2,6-dinitrophenyl)-L-cysteine]
inhibition of C-S lyase (in words) (rat renal C-S lyase): inhibit

CC(=O)N[C@@H](CSc1ccc([N+](=O)[O-])cc1Cl)C(=O)O [N-acetyl-S-(2-chloro-4-nitrophenyl)-L-cysteine]
inhibition of C-S lyase (in words) (rat renal C-S lyase): inhibit

CC(=O)N[C@@H](CSc1ccc([N+](=O)[O-])c([N+](=O)[O-])c1)C(=O)O [N-acetyl-S-(3,4-dinitrophenyl)-L-cystsine]
inhibition of C-S lyase (in words) (rat renal C-S lyase): inhibit

Nc1ccccc1S(=O)(=O)C[C@H](N)C(=O)O [S-(2-aminophenyl)-L-cysteine sulfone]
pKi (Kynureninase; [5]): ≥ 7.15 | pKi (Kynureninase; read-out: Ki): ~7.15 | inhibition (in words) (Kynureninase): considerably more potent inhibitor of kynureninase

Nc1ccccc1SC[C@H](N)C(=O)O [S-(2-aminophenyl)-L-cysteine]
pKi (Kynureninase; [5]): 5.60 | pKi (Kynureninase; read-out: Ki value): 5.66 | fold decrease in Ki value (Kynureninase): 318 fold

N[C@@H](CSC(=O)c1ccccc1)C(=O)O [S-benzoyl-L-cystsine]
substrate of kynureninase (in words) ([2]; Tanizawa and Soda (1979)): not substrates

N[C@@H](CS(=O)(=O)c1ccccc1)C(=O)O [S-phenyl-L-cysteine sulfone]
pKi (Kynureninase; [5]): 5.41 | pKi (Kynureninase; read-out: Ki value): 5.41 | fold decrease in Ki value (Kynureninase): 180 fold

N[C@@H](CSc1ccccc1)C(=O)O [S-phenyl-L-cysteine]
pKi (Kynureninase; [5]): 3.15 | pKi (Kynureninase; read-out: Ki value): 3.15 | inhibition (in words) (Kynureninase): very weak inhibitor

O=Cc1ccccc1 [benzaldehyde]
inhibition of bacterial kynureninase (in words) (bacterial kynureninase [4]): inhibitors

Nc1ccccc1C(O)C[C@H](N)C(=O)O (stereo partly drawn) [dihydrokynurenine, α,2-diamino-γ-hydroxybenzenebutanoic acid]
Km ([2]; Tanizawa and Soda (1979)): 67 µM | Vmax / reactivity relative to L-kynurenine ([2]; Tanizawa and Soda (1979)): about 65% | substrate of kynureninase (in words) ([2]; Tanizawa and Soda (1979)): substrate

CC(=O)OC[C@H](N)C(=O)O [o-acetyl-L-serine]
inactivation of kynureninase (in words) (bacterial kynureninase [3]): inactivated kynureninase | reaction with kynureninase (in words) (bacterial kynureninase [3]): react with kynureninase to give pyruvate and ammonia

CC(=O)c1ccccc1N [o-aminoacetophenone]
inhibition of bacterial kynureninase (in words) (bacterial kynureninase [4]): inhibitors

Nc1ccccc1C=O [o-aminobenzaldehyde]
inhibition of bacterial kynureninase (in words) (bacterial kynureninase [4]): strongly inhibited | pKi (bacterial kynureninase [4]; non-competitive inhibition): 5.19

O=Cc1ccccc1[N+](=O)[O-] [o-nitrobenzaldehyde]
inhibition of bacterial kynureninase (in words) (bacterial kynureninase [4]): inhibitors

CC(O)CC(N)C(=O)O (stereo not drawn) [α-amino-γ-hydroxypentanoic acid]
reaction with rat liver kynureninase to produce alanine (in words) (rat liver kynureninase): reacted with rat liver kynureninase

N[C@@H](CC(=O)c1cccc(O)c1)C(=O)O [β-(m-hydroxybenzoyl)-L-alanine]
substrate of bacterial kynureninase (in words) (bacterial kynureninase [1]): do not react with bacterial kynureninase

Nc1ccccc1C(=O)CCC(=O)O [β-(o-aminobenzoyl)propanoic acid]
substrate of bacterial kynureninase (in words) (bacterial kynureninase [1]): do not react with bacterial kynureninase

N[C@@H](CC(=O)c1ccccc1O)C(=O)O [β-(o-hydroxybenzoyl)-L-alanine]
substrate of bacterial kynureninase (in words) (bacterial kynureninase [1]): substrates

N[C@@H](CC(=O)c1ccccc1[N+](=O)[O-])C(=O)O [β-(o-nitrobenzoyl)-L-alanine]
substrate of bacterial kynureninase (in words) (bacterial kynureninase [1]): do not react with bacterial kynureninase | reaction with rat liver kynureninase to produce alanine (in words) (rat liver kynureninase): did not

Nc1ccc(C(=O)C[C@H](N)C(=O)O)cc1 [β-(p-aminobenzoyl)-L-alanine]
substrate of bacterial kynureninase (in words) (bacterial kynureninase [1]): do not react with bacterial kynureninase

N[C@@H](CC(=O)c1ccccc1)C(=O)O [β-benzoyl-L-alanine]
substrate of bacterial kynureninase (in words) (bacterial kynureninase [1]): substrates | reaction with rat liver kynureninase to produce alanine (in words) (rat liver kynureninase): reacted with rat liver kynureninase | substrate of kynureninase (in words) ([2]; Tanizawa and Soda (1979)): substrates | Km ([2]; bacterial kynureninase): 160 µM

O=C(O)CCC(=O)c1ccccc1 [β-benzoylpropanoic acid]
substrate of bacterial kynureninase (in words) (bacterial kynureninase [1]): do not react with bacterial kynureninase

N[C@@H](CCl)C(=O)O [β-chloro-L-alanine]
inactivation of kynureninase (in words) (bacterial kynureninase [3]): inactivated kynureninase | reaction with kynureninase (in words) (bacterial kynureninase [3]): react with kynureninase to give pyruvate and ammonia

N#CC[C@H](N)C(=O)O [β-cyano-L-alanine]
inactivation of kynureninase (in words) (bacterial kynureninase [3]): inactivated kynureninase | reaction with kynureninase (in words) (bacterial kynureninase [3]): react with kynureninase to give pyruvate and ammonia

CC(O)C[C@H](N)C(=O)O (stereo partly drawn) [γ-methyl-L-homoserine]
reaction with rat liver kynureninase to produce alanine (in words) (rat liver kynureninase): reacted with rat liver kynureninase

N[C@@H](CC(O)c1ccccc1)C(=O)O (stereo partly drawn) [γ-phenyl-L-homoserine]
reaction with rat liver kynureninase to produce alanine (in words) (rat liver kynureninase): reacted with rat liver kynureninase
